Source: patent US12473295B2, “Substituted straight chain spiro derivatives” (Janssen Pharmaceutica NV, priority 2019, dated 2025)
pIC50: −log10 of the molar value. Counter-ions that a name gives are not always drawn.

biological target: menin/MLL (terbium chelate-labeled menin, FITC-MBM1 peptide) (Homo sapiens (Human), UniProt O00255); test: Menin/MLL homogenous time-resolved fluorescence (HTRF) assay; format: binding; details: HTRF-30 min incubation IC50, 30 min incubation;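 also: IC50 from percent inhibition of HTRF signal, normalized between wells without competitor and wells with a saturating competitor that displaces FITC-MBM1 from His-tagged menin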
Sequence (O00255 other isoform, or with tags, fused parts or gaps): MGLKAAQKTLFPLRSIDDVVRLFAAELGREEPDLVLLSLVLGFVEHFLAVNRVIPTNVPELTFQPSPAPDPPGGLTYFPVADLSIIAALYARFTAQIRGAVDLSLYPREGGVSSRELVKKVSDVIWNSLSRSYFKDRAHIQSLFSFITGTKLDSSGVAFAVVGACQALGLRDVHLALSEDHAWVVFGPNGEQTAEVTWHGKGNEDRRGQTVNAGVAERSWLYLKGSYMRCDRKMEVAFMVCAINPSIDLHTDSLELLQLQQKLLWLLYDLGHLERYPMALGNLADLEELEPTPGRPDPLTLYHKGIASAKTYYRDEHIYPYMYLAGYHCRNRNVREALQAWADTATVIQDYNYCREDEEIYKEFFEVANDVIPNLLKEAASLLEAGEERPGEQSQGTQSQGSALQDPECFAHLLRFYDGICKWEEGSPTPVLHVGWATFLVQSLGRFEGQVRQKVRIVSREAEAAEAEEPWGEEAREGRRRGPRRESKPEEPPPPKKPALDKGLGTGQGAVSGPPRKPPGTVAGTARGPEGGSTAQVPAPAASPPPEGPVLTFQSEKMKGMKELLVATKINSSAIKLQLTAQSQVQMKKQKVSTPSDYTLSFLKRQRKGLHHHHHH

| pIC50 | Compound |
| --- | --- |
| 8.26 | CCN(CC)C[C@@H](O)C[C@@H](C(C)C)N1CC2(CCN(c3ncnnc3Oc3ccc(F)cc3C(=O)N(CC)C(C)C)C2)C1 (single isomer, unassigned) [Compound 335, 2-((5-(2-((3*S,5*S)-6-diethylamino)-5-hydroxy-2-methylhexan-3-yl)-2,6-diazaspiro[3.4]octan-6-yl)-1,2,4-triazin-6-yl)oxy)-N-ethyl-5-fluoro-N-isopropylbenzamide fumarate] |
| 7.81 | CCN(C(=O)c1cc(F)ccc1Oc1nncnc1N1CCC2(C1)CN([C@@H](C[C@@H](CN(C)C)OC)C(C)C)C2)C(C)C (single isomer, unassigned) [Compound 377, 2-((5-(2-((3*S,5*R)-6-(dimethylamino)-5-methoxy-2-methylhexan-3-yl)-2,6-diazaspiro[3.4]octan-6-yl)-1,2,4-triazin-6-yl)oxy)-N-ethyl-5-fluoro-N-isopropylbenzamide fumarate] |
| 10.07 | CCN(C(=O)c1cc(F)ccc1Oc1nnc(OC)nc1N1CCC2(C1)CN([C@H](CCCN)C(C)C)C2)C(C)C [Compound 407, (R)-2-((5-(2-(6-amino-2-methylhexan-3-yl)-2,6-diazaspiro[3.4]octan-6-yl)-3-methoxy-1,2,4-triazin-6-yl)oxy)-N-ethyl-5-fluoro-N-isopropylbenzamide formate] |
| 8.02 | CCCN(C)C[C@@H](O)C[C@@H](C(C)C)N1CC2(CCN(c3ncnnc3Oc3ccc(F)cc3C(=O)N(CC)C(C)C)C2)C1 (single isomer, unassigned) [Compound 387, N-ethyl-5-fluoro-2-((5-(2-((3*S,5*S)-5-hydroxy-2-methyl-6-(methyl(propyl)amino)hexan-3-yl)-2,6-diazaspiro[3.4]octan-6-yl)-1,2,4-triazin-6-yl)oxy)-N-isopropylbenzamide fumarate] |
| 8.34 | CCN(CC)C[C@@H](O)C[C@H](C(C)C)N1CC2(CCN(c3ncnnc3Oc3ccc(F)cc3C(=O)N(CC)C(C)C)C2)C1 (single isomer, unassigned) [Compound 337, 2-(5-(2-((3*R,5*S)-6-(diethylamino)-5-hydroxy-2-methylhexan-3-yl)-2,6-diazaspiro[3.4]octan-6-yl)-1,2,4-triazin-6-yl)oxy)-N-ethyl-5-fluoro-N-isopropylbenzamide fumarate] |
| ~10.46 | CCN(C(=O)c1cc(F)ccc1Oc1nnc(OC)nc1N1CCC2(C1)CN([C@H](CCCN(C)CCOC)C(C)C)C2)C(C)C [Compound 416, (R)-N-ethyl-5-fluoro-N-isopropyl-2-((3-methoxy-5-(2-(6-((2-methoxyethyl)(methyl)amino)-2-methylhexan-3-yl)-2,6-diazaspiro[3.4]octan-6-yl)-1,2,4-triazin-6-yl)oxy)benzamide formate] |
| 10.08 | COCCN(C)CCC[C@H](C(C)C)N1CC2(CCN(c3ncnnc3Oc3ccc(F)cc3C(=O)N(C)C(C)C)C2)C1 [Compound 415, (R)-5-fluoro-N-isopropyl-2-((5-(2-(6-((2-methoxyethyl)(methyl)amino)-2-methylhexan-3-yl)-2,6-diazaspiro[3.4]octan-6-yl)-1,2,4-triazin-6-yl)oxy)-N-methylbenzamide] |

More lines, now with the values behind:

| Compound | pIC50 |
| --- | --- |
| CCN(C(=O)c1cc(F)ccc1Oc1nncnc1N1CCC2(C1)CN([C@H](C[C@@H](C)CN(C)CCOC)C(C)C)C2)C(C)C (single isomer, unassigned) [Compound 240, N-ethyl-5-fluoro-N-isopropyl-2-((5-(2-((3*R,5*R)-6-((2-methoxyethyl)(methyl)amino)-2,5-dimethylhexan-3-yl)-2,6-diazaspiro[3.4]octan-6-yl)-1,2,4-triazin-6-yl)oxy)benzamide fumarate] | 7.91 |
| COCCN(C)CCC[C@@H](C(C)C)N1CC2(CCN(c3ccnnc3Oc3ccc(F)cc3C(=O)N(C(C)C)C(C)C)C2)C1 (single isomer, unassigned) [Compound 89, (*S)-5-fluoro-N,N-isopropyl-2-((4-(2-(6-((2-methoxyethyl)(methyl)amino)-methylhexan-3-yl)-2,6-diazaspiro[3.4]octan-6-yl)pyridazin-3-yl)oxy)benzamide oxalate] | 8.42 |
| CC(C)[C@H](C[C@@H](O)CN(C)C)N1CC2(CCN(c3ncnnc3Oc3ccc(F)cc3C(=O)N(C(C)C)C(C)C)C2)C1 (single isomer, unassigned) [Compound 370, 2-((5-(2-((3*S,5*R)-6-(dimethylamino)-5-hydroxy-2-methylhexan-3-yl)-2,6-diazaspiro[3.4]octan-6-yl)-1,2,4-triazin-6-yl)oxy)-5-fluoro-N,N-diisopropylbenzamide fumarate] | 8.27 |
| CCN(C(=O)c1cc(F)ccc1Oc1nncnc1N1CCC2(C1)CN([C@@H](C[C@H](O)CN(C)C(C)C)C(C)C)C2)C(C)C (single isomer, unassigned) [Compound 324, N-ethyl-5-fluoro-2-((5-(2-((3*S,5*S)-5-hydroxy-6-(isopropyl(methyl)amino)-2-methylhexan-3-yl)-2,6-diazaspiro[3.4]octan-6-yl)-1,2,4-triazin-6-yl)oxy)-N-isopropylbenzamide fumarate] | 7.74 |
| CCN(C(=O)c1cc(F)ccc1Oc1nncnc1N1CCC2(C1)CN([C@@H](C[C@@H](O)CN(C)CCOC)C(C)C)C2)C(C)C (single isomer, unassigned) [Compound 357, N-ethyl-5-fluoro-2-((5-(2-((3*S,5R)-5-hydroxy-6-((2-methoxyethyl)(methyl)amino)-2-methylhexan-3-yl)-2,6-diazaspiro[3.4]octan-6-yl)-1,2,4-triazin-6-yl)oxy)-N-isopropylbenzamide fumarate] | 8.11 |
| CCN(C(=O)c1cc(F)ccc1Oc1nncnc1N1CCC2(C1)CN([C@@H](C[C@@H](O)CN(C)C(C)C)C(C)C)C2)C(C)C (single isomer, unassigned) [Compound 326, N-ethyl-5-fluoro-2-((5-(2-((3*S,5*R)-5-hydroxy-6-(isopropyl(methyl)amino)-2-methylhexan-3-yl)-2,6-diazaspiro[3.4]octan-6-yl)-1,2,4-triazin-6-yl)oxy)-N-isopropylbenzamide fumarate] | 7.73 |
| CCN(C(=O)c1cc(F)ccc1Oc1nncnc1N1CCC2(C1)CN([C@@H](C[C@H](CN(C)C)OC)C(C)C)C2)C(C)C (single isomer, unassigned) [Compound 378, 2-((5-(2-((3*S,5*R)-6-(dimethylamino)-5-methoxy-2-methylhexan-3-yl)-2,6-diazaspiro[3.4]octan-6-yl)-1,2,4-triazin-6-yl)oxy)-N-ethyl-5-fluoro-N-isopropylbenzamide fumarate] | 7.56 |
| CCN(C(=O)c1cc(F)ccc1Oc1nncnc1N1CCC2(C1)CN([C@@H](CCCCN(C)C)C(C)C)C2)C(C)C (single isomer, unassigned) [Compound 212] | 8.02 |
| CCN(C)C[C@H](C[C@@H](C(C)C)N1CC2(CCN(c3ncnnc3Oc3ccc(F)cc3C(=O)N(CC)C(C)C)C2)C1)OC (single isomer, unassigned) [Compound 379, N-ethyl-2-((5-(2-((3*S,5*S)-6-(ethyl(methyl)amino)-5-methoxy-2-methylhexan-3-yl)-2,6-diazaspiro[3.4]octan-6-yl)-1,2,4-triazin-6-yl)oxy)-5-fluoro-N-isopropylbenzamide] | 7.85 |
| CCN(C)C[C@@H](O)C[C@@H](C(C)C)N1CC2(CCN(c3ncnnc3Oc3ccc(F)cc3C(=O)N(C(C)C)C(C)C)C2)C1 (single isomer, unassigned) [Compound 392, 2-((5-(2-((3*S,5*S)-6-(ethyl(methyl)amino)-5-hydroxy-2-methylhexan-3-yl)-2,6-diazaspiro[3.4]octan-6-yl)-1,2,4-triazin-6-yl)oxy)-5-fluoro-N,N-diisopropylbenzamide fumarate] | 7.99 |
| CCN(C(=O)c1cc(F)ccc1Oc1nncnc1N1CCC2(C1)CN([C@@H](C[C@H](O)CN(C)CCOC)C(C)C)C2)C(C)C (single isomer, unassigned) [Compound 353, N-ethyl-5-fluoro-2-((5-(2-((3*S,5S)-5-hydroxy-6-((2-methoxyethyl)(methyl)amino)-2-methylhexan-3-yl)-2,6-diazaspiro[3.4]octan-6-yl)-1,2,4-triazin-6-yl)oxy)-N-isopropylbenzamide fumarate] | 8.38 |
| CCN(C)C[C@@H](C[C@@H](C(C)C)N1CC2(CCN(c3ncnnc3Oc3ccc(F)cc3C(=O)N(CC)C(C)C)C2)C1)OC (single isomer, unassigned) [Compound 380, N-ethyl-2-((5-(2-((3*S,5*R)-6-(ethyl(methyl)amino)-5-methoxy-2-methylhexan-3-yl)-2,6-diazaspiro[3.4]octan-6-yl)-1,2,4-triazin-6-yl)oxy)-5-fluoro-N-isopropylbenzamide] | 7.39 |
| CCN(C(=O)c1cc(F)ccc1Oc1nncnc1N1CCC2(C1)CN([C@@H](C[C@H](C)CN(C)CCOC)C(C)C)C2)C(C)C (single isomer, unassigned) [Compound 243, N-ethyl-5-fluoro-N-isopropyl-2-((5-(2-((3*S,5*S)-6-((2-methoxyethyl)(methyl)amino)-2,5-dimethylhexan-3-yl)-2,6-diazaspiro[3.4]octan-6-yl)-1,2,4-triazin-6-yl)oxy)benzamide fumarate] | 8.13 |
| COCCNCCC[C@@H](C(C)C)N1CC2(CCN(c3ncnnc3Oc3ccc(F)cc3C(=O)N(C(C)C)C(C)C)C2)C1 (single isomer, unassigned) [Compound 100, (*S)-5-fluoro-N,N-isopropyl-2-((5-(2-(6-((2-methoxyethyl)amino)-2-methylhexan-3-yl)-2,6-diazaspiro[3.4]octan-6-yl)-1,2,4-triazin-6-yl)oxy)benzamide oxalate] | 8.69 |

same assay, conditions: read-out: HTRF-30 min incubation IC50; 30 min incubation

| pIC50 | Compound |
| --- | --- |
| 8.70 | N-ethyl-(2-(((3-(2-(5 ethyl(methyl)amino)-5-methoxy-2-methylhexan-3-yl-2,&6-diazaspiro[3.4]octan-6-yl)-1,2,4-triazin-6-yl)oxy)-5-fluoro-N-isopropylbenzamide [Compound 313] |

system: MEIS1 mRNA; test: MEIS1 mRNA expression assay (Quantigene Singleplex) in MOLM14 cells; format: cell-based, human; details: 48 hours incubation;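 also: MEIS1 transcript levels read by probe hybridization and normalized to RPL28 mRNA, with IC50 fitted to fold changes across a rising compound concentration series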

| pIC50 | Compound |
| --- | --- |
| ~6.59 | N-ethyl-(2-(((3-(2-(5 ethyl(methyl)amino)-5-methoxy-2-methylhexan-3-yl-2,&6-diazaspiro[3.4]octan-6-yl)-1,2,4-triazin-6-yl)oxy)-5-fluoro-N-isopropylbenzamide [Compound 313] |

same assay, conditions: Homo sapiens, MOLM-14, 48 h, 48 hours incubation

| pIC50 | Compound |
| --- | --- |
| 6.42 | CCN(C(=O)c1cc(F)ccc1Oc1nnc(OC)nc1N1CCC2(C1)CN([C@H](CCCN)C(C)C)C2)C(C)C [Compound 407, (R)-2-((5-(2-(6-amino-2-methylhexan-3-yl)-2,6-diazaspiro[3.4]octan-6-yl)-3-methoxy-1,2,4-triazin-6-yl)oxy)-N-ethyl-5-fluoro-N-isopropylbenzamide formate] |
| < 6.00 | CCN(CC)C[C@@H](O)C[C@H](C(C)C)N1CC2(CCN(c3ncnnc3Oc3ccc(F)cc3C(=O)N(CC)C(C)C)C2)C1 (single isomer, unassigned) [Compound 337, 2-(5-(2-((3*R,5*S)-6-(diethylamino)-5-hydroxy-2-methylhexan-3-yl)-2,6-diazaspiro[3.4]octan-6-yl)-1,2,4-triazin-6-yl)oxy)-N-ethyl-5-fluoro-N-isopropylbenzamide fumarate] |
| 7.31 | CCN(C(=O)c1cc(F)ccc1Oc1nnc(OC)nc1N1CCC2(C1)CN([C@H](CCCN(C)CCOC)C(C)C)C2)C(C)C [Compound 416, (R)-N-ethyl-5-fluoro-N-isopropyl-2-((3-methoxy-5-(2-(6-((2-methoxyethyl)(methyl)amino)-2-methylhexan-3-yl)-2,6-diazaspiro[3.4]octan-6-yl)-1,2,4-triazin-6-yl)oxy)benzamide formate] |
